Read-outs that look alike come from different tables or passages of the source.
Assays:
[1] = tested on: TNF a; assay: LPS stimulation of human PBMs, TNF a by ELISA; assay type: cell-based; conditions: LPS-stimulated human PBMs, TNF cell assay; read-out: Human PBM Assay IC50
Procedure: Human whole blood was collected in Vacutainer tubes containing EDTA as an anticoagulant. A blood sample (7 ml) was carefully layered over 5 ml PMN Cell Isolation Medium (Robbins Scientific) in a 15 ml round bottom centrifuge tube. The sample was centrifuged at 450-500×g for 30-35 minutes in a swing out rotor at room temperature. After centrifugation, the top band of cells were removed and washed 3 times with PBS w/o calcium or magnesium. The cells were centrifuged at 400×g for 10 minutes at room temperature. The cells were resuspended in Macrophage Serum Free Medium (Gibco BRL) at a concentration of 2 million cells/ml.
Compounds were dissolved in DMSO initially and diluted in TCM for a final-concentration of 0.1% DMSO. LPS (Calbiochem, 20 ng/ml, final concentration) was then added at a volume of 0.010 ml. Cultures were incubated overnight at 37° C. Supernatants were then removed and tested by ELISA for TNF a and IL1-b. Viability was analyzed using MTS. After 0.1 ml supernatant was collected, 0.0,20 ml MTS was added to remaining 0.1 ml cells.

[2] = tested on: TNF-α; assay: LPS stimulation of TNF production by U937 cells; assay type: cell-based, human; conditions: Homo sapiens, U-937, LPS-stimulated U937 cells
Method in brief: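 PMA-differentiated human U937 cells (20 ng/ml PMA, 24 h, then 24-48 h rest) at 2 million cells/ml, 0.1% DMSO final, stimulated with E. coli LPS (100 ng/ml final) for 4 h at 37° C. TNF-α in medium measured by ELISA; IC50 in μM.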

[3] = molecular target: T1, human p38 kinase alpha (Homo sapiens, UniProt Q16539); assay: p38 kinase in vitro assay, phosphorylation of biotinylated PHAS-I with gamma 32P-ATP; assay type: biochemical
T1 construct: The coding region of the human p38a cDNA was obtained by PCR-amplification from RNA isolated from the human monocyte cell line THP.1; GST (N); made in house; host or cells: E. coli DH10B
Method in brief: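 MKK6-activated human p38α phosphorylates biotinylated PHAS-I with γ-32P-ATP in 25 mM HEPES pH 7.5, 10 mM Mg acetate, 50 μM unlabeled ATP, 1% DMSO, 30 °C for 1 h or overnight. Compounds at 100–0.001 μM (10-fold steps, triplicate); substrate captured on streptavidin filter plates and counted by scintillation.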

[4] = molecular target: T2, human GST-p38 kinase alpha (Homo sapiens, UniProt Q16539); assay: p38 kinase in vitro assay, second format, phosphorylation of EGFRP with 33P-ATP; assay type: biochemical; conditions: p38α in vitro, EGFRP assay procedure; read-out: p38^2 IC50
T2 construct: The coding region of the human p38a cDNA was obtained by PCR-amplification from RNA isolated from the human monocyte cell line THP.1; made in house; host or cells: E. coli DH10B
Method in brief: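 Activated human GST-p38α (pre-activated with GST-MKK6, 1 h, 30 °C) phosphorylates EGFR 21-mer peptide (200 μM) with 50 μM ATP plus γ-33P-ATP, pH 7.5, 60 min at room temperature. Unreacted ATP removed by AG 1×8 resin; supernatant scintillation-counted.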

[5] = tested on: TNF alpha; assay: Mouse model of LPS-induced TNF alpha production; assay type: in vivo; conditions: mouse, oral, 1h before LPS, 30 mpk; read-out: mLPS 1h, 30 mpk percent inhibition
Procedure: TNF alpha was induced in 10-12 week old BALB/c female mice by tail vein injection with 100 ng lipopolysaccharide (from S. Typhosa) in 0.2 ml saline. One hour later mice were bled from the retroorbital sinus and TNF concentrations in serum from clotted blood were quantified by ELISA.
Efficacy was determined at each time point as percent inhibition of serum TNF levels relative to LPS injected mice that received vehicle only
wherein in the dose is milligram per kilogram (mpk) administered by oral gavage and the predose time indicates the number of hours before LPS challenge when the compound is administered.

[6] = activated human p38 kinase alpha, PHAS-I substrate, 50 μM unlabeled ATP, read-out: p38 kinase IC50
[7] = p38α in vitro, PHAS-I assay procedure, read-out: p38^1 IC50

T1 sequence (Q16539 whole entry): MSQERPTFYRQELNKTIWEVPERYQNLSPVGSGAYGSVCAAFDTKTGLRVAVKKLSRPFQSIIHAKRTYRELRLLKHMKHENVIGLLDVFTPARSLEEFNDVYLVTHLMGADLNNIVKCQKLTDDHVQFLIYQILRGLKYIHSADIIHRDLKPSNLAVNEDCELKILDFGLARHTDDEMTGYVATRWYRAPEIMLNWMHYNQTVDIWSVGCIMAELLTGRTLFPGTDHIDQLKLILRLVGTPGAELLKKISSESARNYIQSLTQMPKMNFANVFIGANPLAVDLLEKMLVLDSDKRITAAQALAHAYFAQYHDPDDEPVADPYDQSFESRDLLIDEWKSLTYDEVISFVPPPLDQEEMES
T2 sequence (Q16539 whole entry): as above

| Compound | IC50 [1] | IC50 [4] | IC50 ([2]; read-out: U937 IC50) | inhibition in vivo at 30 mg/kg [5] | further results |
| --- | --- | --- | --- | --- | --- |
| Cc1[nH]nc(-c2ccc(F)cc2)c1-c1ccncc1 [Example 4, 4-[3-(4-fluorophenyl)-5-methyl-1H-pyrazol-4-yl)pyridine] | 100 nM |  |  |  | IC50 ([2]; read-out: U937 Cell Assay IC50): 222 nM |
| COc1ccc(-c2[nH]nc(C)c2-c2ccncc2)cc1F [Example A-1, 4-[5-(3-fluoro-4-methoxyphenyl)-3-methyl-1H-pyrazol-4-yl]pyridine] | 500 nM |  |  |  | IC50 [3, 6]: 4600 nM |
| Cc1n[nH]c(-c2ccccc2)c1-c1ccncc1 [Example A-2, 4-(3-methyl-5-phenyl-1H-pyrazol-4-yl)pyridine] | 1600 nM |  |  |  | IC50 [3, 6]: 1500 nM; IC50 ([2]; read-out: U937 Cell Assay IC50): 578 nM; melting point: 212 to 214 °C |
| Cc1n[nH]c(-c2ccc(Cl)cc2)c1-c1ccncc1 [Example A-7, 4-(3-(4-chlorophenyl)-5-methyl-1H-pyrazol-4-yl)pyridine] | 200 nM |  |  |  | IC50 ([2]; read-out: U937 Cell Assay IC50): 201 nM |
| Cc1cccc(-c2[nH]nc(C)c2-c2ccncc2)c1 [Example A-8] | < 100 nM |  |  |  | IC50 [3, 6]: < 100 nM |
| Cc1ccc(C)c(-c2[nH]nc(C)c2-c2ccncc2)c1 [Example A-9] | 400 nM |  |  |  |  |
| Cc1n[nH]c(-c2ccc3c(c2)OCO3)c1-c1ccncc1 [Example A-10, 4-[5-(1,3-benzodioxol-5-yl)-3-methyl-1H-pyrazol-4-yl]pyridine] | 700 nM |  |  |  | IC50 ([2]; read-out: U937 Cell Assay IC50): 1690 nM |
| Cc1n[nH]c(-c2ccc(-c3ccccc3)cc2)c1-c1ccncc1 [Example A-12, 4-[5-[(1,1′-biphenyl)-4-yl]-3-methyl-1H-pyrazol-4-yl]pyridine] | 8500 nM |  |  |  |  |
| Cc1n[nH]c(-c2cccc(Oc3ccccc3)c2)c1-c1ccncc1 [Example A-13] | 4800 nM |  |  |  |  |
| Cc1n[nH]c(-c2cccc(OCc3ccccc3)c2)c1-c1ccncc1 [Example A-14, 4-[3-methyl-5-[3-(phenylmethoxy)phenyl]-1H-pyrazol-4-yl]pyridine] | 1200 nM |  |  |  |  |
| Cc1n[nH]c(-c2cccc(O)c2)c1-c1ccncc1 [Example A-17, 3-[3-methyl-4-(4-pyridinyl)-1H-pyrazol-4-yl]phenol] | 1100 nM |  |  |  |  |
| CN(C)c1n[nH]c(-c2ccc(F)cc2)c1-c1ccncc1 [Example A-19, 5-(4-fluorophenyl)-N, N-dimethyl-4-(4-pyridinyl)-1H-pyrazol-3-amine] | 300 nM |  |  |  | IC50 ([2]; read-out: U937 Cell Assay IC50): 484 nM; melting point: 245 to 247 °C |
| Cc1cccc(-c2[nH]nc(C(F)(F)F)c2-c2ccncc2)c1 [Example A-22, 4-[5-(3-methylphenyl)-3-(trifluoromethyl)-1H-pyrazol-4-yl]pyridine] | 3200 nM |  |  |  | melting point: 237 to 239 °C |
| Cc1n[nH]c(C2CCCCC2)c1-c1ccncc1 [Example A-24] | 8200 nM |  |  |  |  |
| CCc1[nH]nc(-c2cccc(C)c2)c1-c1ccncc1 [Example A-45] | < 100 nM |  |  |  | IC50 [3, 6]: < 100 nM |
| Cn1cc(-c2ccncc2)c(-c2ccc(F)cc2)n1 [Example A-212, 4-[3-(4-fluorophenyl)-1-methyl-1H-pyrazol-4-yl]pyridine] |  | 740 nM | 96.7 nM | 93% | IC50 [3, 7]: 490 nM |
| Cn1nc(-c2ccc(F)cc2)c(-c2ccncc2)c1Br [Example A-214, 4-[5-bromo-3-(4-fluorophenyl)-1-methyl-1H-pyrazol-4-yl]pyridine] |  | 60 nM |  | 70% | melting point: 174.38 °C |
| N#Cc1cc(-c2c[nH]nc2-c2ccc(F)cc2)ccn1 [Example A-215, 4-[3-(4-fluorophenyl)-1H-pyrazol-4-yl]-2-pyridinecarbonitrile] |  | 2340 nM | 298 nM | 80% | melting point: 209.22 °C |
| c1cc(-c2c[nH]nc2-c2ccc3c(c2)OCO3)ccn1 [Example A-228, 4-[3-(1,3-benzodioxol-5-yl)-1H-pyrazol-4-yl]pyridine] |  | 339 nM | 417 nM | 92% | IC50 [3, 7]: 760 nM |
| CN(C)CCn1cc(-c2ccncc2)c(-c2ccc(F)cc2)n1 [Example A-261, 3-(4-fluorophenyl)-N,N-dimethyl-4-(4-pyridinyl)-1H-pyrazole-1-ethanamine] |  | 8 nM | 254 nM | 92% |  |
| Cn1cc(-c2ccnc(CCc3ccc(F)cc3)c2)c(-c2ccc(F)cc2)n1 [Example A-262, 2-[2-(4-fluorophenyl)ethyl]-4-[3-(4-fluorophenyl)-1-methyl-1H-pyrazol-4-yl]pyridine] |  | < 100 nM | 327 nM | 45% |  |
| Fc1ccc(-c2n[nH]cc2-c2ccnc(NC3CCN(Cc4ccccc4)CC3)c2)cc1 [Example A-263, 4-[3-(4-fluorophenyl)-1H-pyrazol-4-yl]-N-[1-(phenylmethyl)-4-piperidinyl]-2-pyridinamine] |  | < 100 nM | 543 nM | 49% | IC50 [3, 7]: < 10 nM |
| Fc1ccc(-c2n[nH]cc2-c2ccnc(-c3c[nH]nc3-c3ccc(F)cc3)c2)cc1 [Example A-265, 2,4-bis[3-(4-fluorophenyl)-1H-pyrazol-4-yl]pyridine] |  | < 100 nM | 602 nM | 32% |  |
| OCCn1cc(-c2ccnc(F)c2)c(-c2ccc(F)cc2)n1 [Example A-267, 3-(4-fluorophenyl)-4-(2-fluoro-4-pyridinyl)-1H-pyrazole-1-ethanol] |  | 430 nM | 2670 nM | 80% |  |
| Fc1ccc(-c2n[nH]cc2-c2ccnc(NCCn3ccnc3)c2)cc1 [Example A-268, 4-[3-(4-fluorophenyl)-1H-pyrazol-4-yl]-N-[2-(1H-imidazol-1-yl)ethyl]-2-pyridinamine] |  | < 100 nM | 7.4 nM | 11% |  |
| OCCn1cc(-c2ccnc(/C=C/c3ccc(F)cc3)c2)c(-c2ccc(F)cc2)n1 [Example A-270, (E)-3-(4-fluorophenyl)-4-[2-[2-(4-fluorophenyl)ethenyl]-4-pyridinyl]-1H-pyrazole-1-ethanol] |  | 15 nM | 347 nM | 53% |  |
| CN(C)CCn1cc(-c2ccnc(F)c2)c(-c2ccc(F)cc2)n1 [Example A-271, 3-(4-fluorophenyl)-4-(2-fluoro-4-pyridinyl)-N,N-dimethyl-1H-pyrazole-1-ethanamine] |  | 216 nM | 4210 nM | 68% |  |

Reference: patent US6525059B1, “Substituted pyrazoles as p38 kinase inhibitors” (G. D. Searle & Company, priority 1998, dated 2003)
